Assay results published in article PMC6056748, “Amsacrine Derivatives Selectively Inhibit Mycobacterial Topoisomerase I (TopA), Impair M. smegmatis Growth and Disturb Chromosome Replication” (Frontiers in Microbiology, 2018).
pIC50: −log10 of the molar value. Like-named read-outs stand apart in the source and are kept apart here.

Columns and labels:
MsTopA [1] = molecular target: T1, MsTopA (Mycolicibacterium smegmatis, UniProt A0R5D9); assay: Topoisomerase I activity assay (relaxation of negatively supercoiled pUC19); format: biochemical, M. smegmatis; details: 60 nM MsTopA; for MsTopA inhibition in the screen of amsacrine derivatives (Table S2): 60 μM compound, data not shown; for inhibition at 60 µM: 60 μM inhibitor; for MsTopA activity inhibition over concentration range: concentrations from 15 to 60 μM
T1 sequence (A0R5D9 whole entry): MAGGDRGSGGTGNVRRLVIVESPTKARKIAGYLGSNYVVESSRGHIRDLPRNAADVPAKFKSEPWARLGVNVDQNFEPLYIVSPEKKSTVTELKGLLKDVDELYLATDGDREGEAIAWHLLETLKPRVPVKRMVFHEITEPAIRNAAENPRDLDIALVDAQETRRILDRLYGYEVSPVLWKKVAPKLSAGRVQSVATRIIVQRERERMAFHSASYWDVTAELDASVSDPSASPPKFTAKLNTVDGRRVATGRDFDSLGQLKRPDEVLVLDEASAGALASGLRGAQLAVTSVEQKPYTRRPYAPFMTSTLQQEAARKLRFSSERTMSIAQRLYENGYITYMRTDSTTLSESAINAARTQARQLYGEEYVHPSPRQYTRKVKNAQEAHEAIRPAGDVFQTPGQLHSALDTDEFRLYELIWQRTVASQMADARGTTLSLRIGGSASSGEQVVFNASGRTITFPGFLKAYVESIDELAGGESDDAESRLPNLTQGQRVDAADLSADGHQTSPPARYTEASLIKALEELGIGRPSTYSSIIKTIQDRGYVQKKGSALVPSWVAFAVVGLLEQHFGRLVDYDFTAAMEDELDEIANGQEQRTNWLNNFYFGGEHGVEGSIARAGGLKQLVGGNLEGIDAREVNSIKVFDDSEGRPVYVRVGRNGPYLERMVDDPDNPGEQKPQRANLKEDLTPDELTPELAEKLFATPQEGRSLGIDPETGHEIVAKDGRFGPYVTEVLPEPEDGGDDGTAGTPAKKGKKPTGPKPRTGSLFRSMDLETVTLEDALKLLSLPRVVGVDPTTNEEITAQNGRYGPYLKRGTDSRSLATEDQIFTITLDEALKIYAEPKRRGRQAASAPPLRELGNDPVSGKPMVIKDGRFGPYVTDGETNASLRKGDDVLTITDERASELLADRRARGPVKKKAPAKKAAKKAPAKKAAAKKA
Protocol: The amsacrine derivatives were stored at 4°C as 20 mM stock solutions in DMSO. Shortly before the activity assays, the inhibitors were diluted in DMSO to reach working concentration (0.15–0.6 mM). An 18 μl mixture containing 120 ng MsTopA, 25 mM NaH2PO4 at pH 8.0, 150 mM NaCl, 5% glycerol, 10 mM MgCl2 and a tested inhibitor in a final concentration of 15, 30, or 60 μM was incubated for 30 min on ice. To start the reaction, 2.0 μl (140 ng) of negatively supercoiled pUC19 plasmid were added to the mixture and incubated for 15 min at 37°C in the presence of 60 nM MsTopA. The reaction was stopped by adding 1.5 μl of 0.5 M EDTA. DNA was resolved in 0.8% agarose in TAE buffer at 140 V for 3 h at room temperature. Topoisomers distribution was visualized by ethidium bromide staining for 30 min at room temperature. Subsequently, the fluorescence signal of supercoiled plasmid and the relaxed topoisomers was calculated using ImageJ Fiji suite (http://fiji.sc/Fiji). To determine the efficiency of MsTopA inhibition, we calculated the fraction of total plasmid that remained supercoiled after the reaction.

MsTopA [2] = molecular target: T1, MsTopA; assay: Surface plasmon resonance of MsTopA binding to immobilized DNA; parameters: species or system M. smegmatis; details: for MsTopA affinity for DNA (SPR): 15–90 μM compound, MsTopA 60 nM; for ICB, inhibitory concentration that completely blocks MsTopA binding: 241 bp DNA on chip, inhibitor preincubated with MsTopA
Protocol: Surface plasmon resonance (SPR)
SPR analyses were performed on a BIAcore T200. For the SPR analyses, the biotinylated fragment (241-bp long) was amplified using parA4200 and parS4440_rv_biot oligonucleotides from S. coelicolor chromosome. DNA immobilization on the surface of the sensor chip SA and protein binding analyses were performed according to the procedure described by Strzalka et al.[9]. Prior to binding to the DNA-coated chip, MsTopA (50 nM) in 25 mM NaH2PO4 pH 8.0, 150 mM NaCl and 5% glycerol (binding buffer) was incubated on ice for 40 minutes with amsacrine or its XC derivatives (in 15 - 90 µM concentrations or 1% DMSO for the control experiment). For each compound, the ICB value was estimated as the inhibitor concentration that completely abolished the binding of MsTopA to the DNA-coated chip.

M. smegmatis mc2155 = assay: Growth analysis (Bioscreen C, log-phase growth rate); format: cell-based; details: for IC50 lower than amsacrine: M. smegmatis growth; for inhibition at 30 µM: log-phase growth rate vs 1% DMSO
S. venezuelae = assay: as above; format: cell-based; details: for pIC50: growth rate in log-phase, Figure 2B
E. coli = assay: as above; format: cell-based; details: Escherichia coli; for pIC50: growth rate in log-phase, Figure 2B
[3] = test system: M. smegmatis MSZ2 strain producing M. tuberculosis MtTopA; format: cell-based
[4] = Solubility under microfluidic conditions; format: physicochemical
[5] = test system: M. smegmatis strain (JH01), DnaN-EGFP; assay: TLMM: number of DnaN-EGFP foci per cell
Protocol: For time-lapse microscopy, M. smegmatis strains were cultured to the log-phase of growth, then diluted with 7H9 medium supplemented with 10% OADC and 0.05% Tween-80 and loaded into the flow chamber of B04A plates with a CellASIC ONIX flow control system (Merck-Millipore). During the experiment, the cells were continuously supplied with fresh medium supplemented with the inhibitor (at 30–240 μM concentrations) or 1% DMSO in the control experiment. To visualize dead cells, after 15 h of inhibitor treatment cells were washed with propidium iodide at concentration 10 μg/ml for 1 h. The images were taken in 10 min intervals using a Delta Vision Elite Imager equipped with DV Elite CoolSnap HQ2 Camera and SoftWorx software and were subsequently analyzed using ImageJ Fiji suite (http://fiji.sc/Fiji) and R suite (http://www.R-project.org). The analysis of cell cycle and evaluation of particular phases of growth started from the moment of appearance of a single DnaN-EGFP foci (initiation of DNA replication).

[6] = test system: M. smegmatis strain (JH01), DnaN-EGFP; assay: TLMM: replisome lifetime and cell cycle phases; details: for Average lifetime of DnaN-EGFP complex (replisome lifetime): 120 μM, control 1% DMSO 130 min; for Phase D+B / Phase C / Complete cell cycle: 120 µM, mean (SD), n = 50; for Phase D+B: 1% DMSO 33 (15); for Phase C: 1% DMSO 129 (15); for Complete cell cycle: 1% DMSO 162 (18)
MsTopA [7] = molecular target: T1, MsTopA; assay: MsTopA inhibition in PI, NI and PN order-of-addition assays; format: biochemical, M. smegmatis; details: 60 μM inhibitor, 60 nM MsTopA
Protocol: In the inhibition assays used to test the effect of inhibitor binding to the enzyme, DNA or the enzyme-DNA complex (PI—protein-inhibitor binding, NI—nucleic acid-inhibitor binding, or PNI—protein-nucleic acid binding) the complete reaction mixtures (as above) without magnesium ions and one of the reaction components (substrate, enzyme or inhibitor in the PI, NI, and PNI assays, respectively) were preincubated for 30 min on ice. Subsequently, the reactions were started by adding magnesium chloride and the missing component: negatively supercoiled pUC19 plasmid, MsTopA protein or the particular inhibitors. The reactions were performed for 5 min at 37°C and stopped by adding 1.5 μl of 0.5 M EDTA. Topoisomers were resolved and analyzed according to the procedure described above.

[8] = test system: M. smegmatis (JH01 strain); assay: Propidium iodide staining of dead cells (TLMM); details: 120 μM, after 15 hours of exposure
Protocol: For time-lapse microscopy, M. smegmatis strains were cultured to the log-phase of growth, then diluted with 7H9 medium supplemented with 10% OADC and 0.05% Tween-80 and loaded into the flow chamber of B04A plates with a CellASIC ONIX flow control system (Merck-Millipore). During the experiment, the cells were continuously supplied with fresh medium supplemented with the inhibitor (at 30–240 μM concentrations) or 1% DMSO in the control experiment. To visualize dead cells, after 15 h of inhibitor treatment cells were washed with propidium iodide at concentration 10 μg/ml for 1 h. The images were taken in 10 min intervals using a Delta Vision Elite Imager equipped with DV Elite CoolSnap HQ2 Camera and SoftWorx software and were subsequently analyzed using ImageJ Fiji suite (http://fiji.sc/Fiji) and R suite (http://www.R-project.org).
M. smegmatis (JH01 strain) growth in the presence of 120 µM amsacrine or 1% DMSO was
visualized using TLMM microscopy (the procedure descirbed in the materials and methods).
After 15 hours of exposure to antibiotic cells were washed with medium suplemented with 10
µg/ml propidium iodide for 1 hour to detect dead cells (red) in the population.

[9] = Mycolicibacterium smegmatis, MC2155
[10] = Mycolicibacterium smegmatis, MC2155, M. smegmatis, Figure S4, read-out: IC50 (growth inhibition fitted to a sigmoidal model)
[11] = Mycolicibacterium smegmatis, MC2155, growth rate in log-phase, Figure 2B, read-out: IC50 M. smegmatis

SMILES	MsTopA inhibition in the screen of amsacrine derivatives (Table S2) (MsTopA [1])	inhibition at 60 µM (MsTopA [1]) [%]	MsTopA activity inhibition over concentration range (MsTopA [1])	MsTopA affinity for DNA (SPR) (MsTopA [2])	ICB, inhibitory concentration that completely blocks MsTopA binding (MsTopA [2]) [µM]	IC50 lower than amsacrine (M. smegmatis mc2155)	inhibition at 30 µM (M. smegmatis mc2155; [9]) [%]	pIC50 (M. smegmatis mc2155; [10])	pIC50 (M. smegmatis mc2155; [11])	S. venezuelae growth inhibition (S. venezuelae; 60 μM)	pIC50 (S. venezuelae; Streptomyces venezuelae)	pIC50 (E. coli)	Difference in growth inhibition between wild-type M. smegmatis and MSZ2 strain producing MtTopA [3]	Percentage of cells with more than two DnaN-EGFP foci ([5]; 120 μM)	Percentage of cells with no DnaN-EGFP focus ([5]; 120 μM)	Average lifetime of DnaN-EGFP complex (replisome lifetime) [6]	Phase D+B [6]	Phase C [6]	Inhibitory effect when added to the preformed MsTopA-DNA complex (PN assay) (MsTopA [7])	also measured
COc1cc(NS(=O)(=O)c2ccc([N+](=O)[O-])cc2)ccc1Nc1c2ccccc2nc2ccccc12 [XC-3]	efficiently inhibited MsTopA activity	73	strongly inhibit MsTopA activity at concentrations >30 μM	decrease in enzyme affinity for DNA	15	30–40%	55 to 60	4.57	4.59	much lesser extent than amsacrine	< 4.05	4.11	did not observe any differences in growth inhibition	13.4–19.1%	13.8–18.3%	slightly increased				Solubility under microfluidic conditions [4]: poor solubility
COc1cc(NS(=O)(=O)c2ccc(C)cc2)ccc1Nc1c2ccccc2nc2ccccc12 [XC-4]	efficiently inhibited MsTopA activity	80	strongly inhibit MsTopA activity at concentrations >30 μM	decrease in enzyme affinity for DNA	15	30–40%	55 to 60	4.57	4.55	much lesser extent than amsacrine	< 4.05	4.07	did not observe any differences in growth inhibition	4.6%		220 min	70 (38) min	240 (51) min		Percentage of cells with more than two DnaN-EGFP foci ([5]; 30 μM): 19.3%; DnaN-EGFP lifetime ([6]; 30 μM, compared with 120 μM XC-4): shortened the DnaN-EGFP lifetime
COc1cc(NS(=O)(=O)c2ccc(Cl)cc2)ccc1Nc1c2ccccc2nc2ccccc12 [XC-2]	efficiently inhibited MsTopA activity	63	strongly inhibit MsTopA activity at concentrations >30 μM	decrease in enzyme affinity for DNA	30		20 to 30	4.25		much lesser extent than amsacrine	4.07	< 4.05	did not observe any differences in growth inhibition	13.4–19.1%	13.8–18.3%	slightly increased			notably weaker	
COc1cc([C@@H]2c3cc4c(cc3[C@@H](O[C@@H]3O[C@@H]5CO[C@@H](C)O[C@H]5[C@H](O)[C@H]3O)[C@H]3COC(=O)[C@H]23)OCO4)cc(OC)c1O [etoposide, reference compound]																				MsTopA inhibition (MsTopA [1]; etoposide 0.1 - 2.0 mM): did not observe MsTopA inhibition
COc1cc(NS(C)(=O)=O)ccc1Nc1c2ccccc2nc2ccccc12 [Amsacrine, amsacrine]		64	strongly inhibit MsTopA activity at concentrations >30 μM	decrease in enzyme affinity for DNA	90		20 to 30	4.40	4.39		4.33	< 4.05	did not observe any differences in growth inhibition	27.6%	26.1%	slightly increased	40 (21) min	154 (32) min		inhibition at 60 µM (M. smegmatis mc2155; Mycolicibacterium smegmatis, MC2155, 60 μM): ≤ 80%; inhibition at 60 µM (S. venezuelae; Streptomyces venezuelae, 60 μM): ≤ 80%; inhibition at 60 µM (E. coli; read-out: E. coli growth inhibition): 32%; Percentage of cells with more than two DnaN-EGFP foci ([5]; 240 μM): 6.2%; Percentage of cells with no DnaN-EGFP focus ([5]; 240 μM): 48%; Fraction of dead cells (propidium iodide) [8]: 12%; Complete cell cycle [6]: 194 (36) min; Complete cell cycle ([6]; listed as amsacrine): only slightly
COc1cc(NS(=O)(=O)c2ccccc2)ccc1Nc1c2ccccc2nc2ccccc12 [XC-1]	efficiently inhibited MsTopA activity	73	strongly inhibit MsTopA activity at concentrations >30 μM	decrease in enzyme affinity for DNA	60		20 to 30	4.26	4.24	much lesser extent than amsacrine	< 4.05	< 4.05	did not observe any differences in growth inhibition	13.4–19.1%	13.8–18.3%	slightly increased			notably weaker	
